Test results taken from paper PMC6364417, “Kinase inhibitor library screening identifies synergistic drug combinations effective in sensitive and resistant melanoma cells” (Journal of Experimental & Clinical Cancer Research : CR, 2019).

How the values were obtained:
Assay in all cases: Kinase inhibitor library screening, PrestoBlue cell viability, 1 or 10 μM, 72 h
[1] = test system: 501Mel-XP cells (Vemurafenib-resistant); conditions: 72 h
[2] = test system: A375 cells (parental)
[3] = test system: 501Mel-GP cells (Dabrafenib-resistant); conditions: 72 h
[4] = test system: A375-GP cells (Dabrafenib-resistant)
[5] = test system: A375-XP cells (Vemurafenib-resistant)
[6] = test system: IGR37-XP cells (Vemurafenib-resistant)
[7] = test system: IGR37 cells (parental)
[8] = test system: 501Mel cells (parental); conditions: 72 h
In short: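 Values are % viability versus untreated wells, measured by PrestoBlue after a 72 h drug exposure. Screens covered the parental line plus sublines rendered resistant to Vemurafenib or Dabrafenib, each analysed in at least duplicate.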

[9] = test system: IGR37-GP cells (Dabrafenib-resistant)
[10] = IGR37 Parental, 10μΜ, 72 h, in %

## O=C(NOCC1CC1)c1ccc(F)c(F)c1Nc1ccc(I)cc1Cl [CI-1040 (PD184352)]
[1]; 501Mel XP, 1μΜ, in %
  cell viability, 501Mel XP, 1μΜ: 81.0
[1]; 501Mel XP, 10μΜ, in %
  cell viability, 501Mel XP, 10μΜ: 46.4
[2]; A375 Parental, 1μΜ, 72 h, in %
  cell viability, A375 Parental, 1μΜ: 22.5
[2]; A375 Parental, 10μΜ, 72 h, in %
  cell viability, A375 Parental, 10μΜ: 21.5
[3]; 501Mel GP, 1μΜ, in %
  cell viability, 501Mel GP, 1μΜ: 98.8
[3]; 501Mel GP, 10μΜ, in %
  cell viability, 501Mel GP, 10μΜ: 56.0
[4]; A375 GP, 1μΜ, 72 h, in %
  cell viability, A375 GP, 1μΜ: 35.2
[4]; A375 GP, 10μΜ, 72 h, in %
  cell viability, A375 GP, 10μΜ: 16.8
[5]; A375 XP, 1μΜ, 72 h, in %
  cell viability, A375 XP, 1μΜ: 44.6
[5]; A375 XP, 10μΜ, 72 h, in %
  cell viability, A375 XP, 10μΜ: 12.9
[6]; IGR37 XP, 10μΜ, 72 h
  cell viability, IGR37 XP, 10μΜ: 26.4%
[6]; IGR37 XP, 1μΜ, 72 h, in %
  cell viability, IGR37 XP, 1μΜ: 81.9
[7]; IGR37 Parental, 1μΜ, 72 h, in %
  cell viability, IGR37 Parental, 1μΜ: 43.0
[7]; [10]
  cell viability, IGR37 Parental, 10μΜ: 35.8
[8]; 501Mel Parental, 1μΜ, in %
  cell viability, 501Mel Parental, 1μΜ: 64.1
[8]; 501Mel Parental, 10μΜ, in %
  cell viability, 501Mel Parental, 10μΜ: 50.2
[9]; IGR37 GP, 10μΜ, 72 h
  cell viability, IGR37 GP, 10μΜ: 55.9%
[9]; IGR37 GP, 1μΜ, 72 h, in %
  cell viability, IGR37 GP, 1μΜ: 84.8

## COCCOc1ccc2c(c1)ncn2-c1ccc2cccc(N3CCC(N)CC3)c2n1 [CP 673451]
[1]; 501Mel XP, 1μΜ, in %
  Cell viability in kinase inhibitor library screening, 501Mel XP, 1μΜ: 107.1
[1]; 501Mel XP, 10μΜ, in %
  Cell viability in kinase inhibitor library screening, 501Mel XP, 10μΜ: 62.2
[2]; A375 Parental, 10μΜ, 72 h
  Cell viability in kinase inhibitor library screening, A375 Parental, 10μΜ: 71.9
[2]; A375 Parental, 1μΜ, 72 h
  Cell viability in kinase inhibitor library screening, A375 Parental, 1μΜ: 104.8
[3]; 501Mel GP, 1μΜ, in %
  Cell viability in kinase inhibitor library screening, 501Mel GP, 1μΜ: 117.9
[3]; 501Mel GP, 10μΜ, in %
  Cell viability in kinase inhibitor library screening, 501Mel GP, 10μΜ: 96.1
[4]; A375 GP, 1μΜ, 72 h
  Cell viability in kinase inhibitor library screening, A375 GP, 1μΜ: 105.4
[4]; A375 GP, 10μΜ, 72 h
  Cell viability in kinase inhibitor library screening, A375 GP, 10μΜ: 64.4
[5]; A375 XP, 1μΜ, 72 h
  Cell viability in kinase inhibitor library screening, A375 XP, 1μΜ: 109.7
[5]; A375 XP, 10μΜ, 72 h
  Cell viability in kinase inhibitor library screening, A375 XP, 10μΜ: 76.9
[6]; IGR37 XP, 10μΜ, 72 h
  Cell viability in kinase inhibitor library screening, IGR37 XP, 10μΜ: 31.6%
[6]; IGR37 XP, 1μΜ, 72 h, in %
  Cell viability in kinase inhibitor library screening, IGR37 XP, 1μΜ: 105.2
[7]; [10]
  Cell viability in kinase inhibitor library screening, IGR37 Parental, 10μΜ: 105.1
[8]; 501Mel Parental, 10μΜ, in %
  Cell viability in kinase inhibitor library screening, 501Mel Parental, 10μΜ: 90.0
[9]; IGR37 GP, 10μΜ, 72 h
  Cell viability in kinase inhibitor library screening, IGR37 GP, 10μΜ: 88.6%
[9]; IGR37 GP, 1μΜ, 72 h, in %
  Cell viability in kinase inhibitor library screening, IGR37 GP, 1μΜ: 99.0

## COCC(=O)NC/C=C/c1ccc2ncnc(Nc3ccc(Oc4ccc(C)nc4)c(C)c3)c2c1 [CP-724714]
[1]; Homo sapiens, read-out: cell viability, 501Mel XP, 1μΜ
  viability at 1 µM: 101%
[1]; Homo sapiens, read-out: cell viability, 501Mel XP, 10μΜ
  viability at 10 µM: 77.8%
[2]; Homo sapiens, A-375, 72 h, read-out: cell viability, A375 Parental, 1μΜ
  viability at 1 µM: 101%
[2]; Homo sapiens, A-375, 72 h, read-out: cell viability, A375 Parental, 10μΜ
  viability at 10 µM: 90.2%
[3]; Homo sapiens, read-out: cell viability, 501Mel GP, 1μΜ
  viability at 1 µM: 109%
[3]; Homo sapiens, read-out: cell viability, 501Mel GP, 10μΜ
  viability at 10 µM: 87.4%
[4]; Homo sapiens, A-375, 72 h, read-out: cell viability, A375 GP, 1μΜ
  viability at 1 µM: 103%
[4]; Homo sapiens, A-375, 72 h, read-out: cell viability, A375 GP, 10μΜ
  viability at 10 µM: 95.4%
[5]; Homo sapiens, A-375, 72 h, read-out: cell viability, A375 XP, 1μΜ
  viability at 1 µM: 109%
[5]; Homo sapiens, A-375, 72 h, read-out: cell viability, A375 XP, 10μΜ
  viability at 10 µM: 103%
[6]; Homo sapiens, IGR-37, 72 h, read-out: cell viability, IGR37 XP, 1μΜ
  viability at 1 µM: 89.5%
[6]; Homo sapiens, IGR-37, 72 h, read-out: cell viability, IGR37 XP, 10μΜ
  viability at 10 µM: 52.3%
[7]; Homo sapiens, IGR-37, 72 h, read-out: cell viability, IGR37 Parental, 1μΜ
  viability at 1 µM: 101%
[7]; Homo sapiens, IGR-37, 72 h, read-out: cell viability, IGR37 Parental, 10μΜ
  viability at 10 µM: 98%
[8]; Homo sapiens, read-out: cell viability, 501Mel Parental, 1μΜ
  viability at 1 µM: 105%
[8]; Homo sapiens, read-out: cell viability, 501Mel Parental, 10μΜ
  viability at 10 µM: 102%
[9]; Homo sapiens, IGR-37, 72 h, read-out: cell viability, IGR37 GP, 1μΜ
  viability at 1 µM: 91.8%
[9]; Homo sapiens, IGR-37, 72 h, read-out: cell viability, IGR37 GP, 10μΜ
  viability at 10 µM: 86.1%

## Cc1nc(N)sc1-c1ccnc(Nc2ccc(N3CCOCC3)cc2)n1 [CYC116]
[1]; 501Mel XP, 1μΜ
  cell viability (kinase inhibitor library screening): 94.4%
[1]; 501Mel XP, 10μΜ
  cell viability (kinase inhibitor library screening): 30.0%
[2]; A375 Parental, 10μΜ, 72 h
  cell viability (kinase inhibitor library screening): 33.9%
[2]; A375 Parental, 1μΜ, 72 h
  cell viability (kinase inhibitor library screening): 54.1%
[3]; 501Mel GP, 1μΜ
  cell viability (kinase inhibitor library screening): 104.5%
[3]; 501Mel GP, 10μΜ
  cell viability (kinase inhibitor library screening): 44.7%
[4]; A375 GP, 1μΜ, 72 h
  cell viability (kinase inhibitor library screening): 52.0%
[4]; A375 GP, 10μΜ, 72 h
  cell viability (kinase inhibitor library screening): 33.0%
[5]; A375 XP, 1μΜ, 72 h
  cell viability (kinase inhibitor library screening): 75.4%
[5]; A375 XP, 10μΜ, 72 h
  cell viability (kinase inhibitor library screening): 46.7%
[6]; IGR37 XP, 1μΜ, 72 h
  cell viability (kinase inhibitor library screening): 98.8%
[6]; IGR37 XP, 10μΜ, 72 h
  cell viability (kinase inhibitor library screening): 26.5%
[7]; IGR37 Parental, 1μΜ, 72 h
  cell viability (kinase inhibitor library screening): 94.2%
[7]; IGR37 Parental, 10μΜ, 72 h
  cell viability (kinase inhibitor library screening): 59.4%
[8]; 501Mel Parental, 1μΜ
  cell viability (kinase inhibitor library screening): 99.4%
[8]; 501Mel Parental, 10μΜ
  cell viability (kinase inhibitor library screening): 67.9%
[9]; IGR37 GP, 1μΜ, 72 h
  cell viability (kinase inhibitor library screening): 92.1%
[9]; IGR37 GP, 10μΜ, 72 h
  cell viability (kinase inhibitor library screening): 50.1%
